From patent publication US6624179B1, “Geometrical isomers of acrylonitrile compounds, mixture thereof, and process for producing these” (Ishihara Sangyo Kaisha Ltd., priority 1999, dated 2003)
“Also recorded” adds a separate entry of the source.

Key:
[1] = system: citrus red mite (Panonychus citri); assay: Test Example 1: spray application to satsuma mandarin infested with citrus red mite, greenhouse; type: in vivo; details: for Number of adult citrus red mite 7th day / Number of adult citrus red mite 12th day / Number of adult citrus red mite 18th day / Number of adult citrus red mite 26th day: 150 ppm active ingredient, sprayed; for Number of adult citrus red mite 7th day: 10% water-based suspension concentrate, 7th day after application; for Number of adult citrus red mite 12th day: 12th day after application; for Number of adult citrus red mite 18th day: 18th day after application; for Number of adult citrus red mite 26th day: 26th day after application; for pesticidal effects (in words): 150 ppm, citrus red mite on satsuma mandarin, conclusion from Table 1; for Number of adult citrus red mite Before application: baseline count before application, all leaves of satsuma mandarin tree
Excerpt: A 10% water-based suspension concentrate of each of compound D and compound E was dispersed in water to obtain a chemical solution wherein the active ingredient is 150 ppm. Such a chemical solution was applied to satsuma mandarin (Citrus unshiu Marc.) infested with citrus red mite (Panonychus citri) (planted in a plastic pot having a diameter of 24 cm and a height of 29 cm) by means of a sprayer and then left to stand in a greenhouse. Before the application and on the 7th day, 12th day, 18th day and 26th day after the application, the number of adult citrus red mite on all leaves of the satsuma mandarin tree was counted.

[2] = system: two-spotted spider mite (Tetranychus urticae); assay: Test Example 2: spray application to eggplant infested with two-spotted spider mite, greenhouse; type: in vivo; details: for Number of adult two-spotted spite mite 5th day / Number of adult two-spotted spite mite 9th day / Number of adult two-spotted spite mite 12th day / Number of adult two-spotted spite mite 15th day: 150 ppm active ingredient, sprayed; for Number of adult two-spotted spite mite 5th day: 10% water-based suspension concentrate in water with 0.02% spreader, 5th day after application; for Number of adult two-spotted spite mite 9th day: 9th day after application; for Number of adult two-spotted spite mite 12th day: 12th day after application; for Number of adult two-spotted spite mite 15th day: 15th day after application; for pesticidal effects (in words): 150 ppm, two-spotted spider mite on eggplant, conclusion from Table 2; for Number of adult two-spotted spite mite Before application: baseline count before application, on the eggplant
Excerpt: A 10% water-based suspension concentrate of each of compounds H and G was dispersed in water containing 0.02% of a spreader (Shinrino, manufactured by NIHON NOHYAKU CO., LTD.) to obtain a chemical solution wherein the active ingredient was 150 ppm. Such a chemical solution was applied to an eggplant (Solanum melongena) infested with two-spotted spider mite (Tetranychus urticae) (planted in a plastic pot having a diameter of 17 cm and a height of 19 cm) by means of a sprayer, and then left to stand in a greenhouse. Before the application and on the 5th day, 9th day, 12th day and 15th day after the application, the number of adult two-spotted spider mite on the eggplant was counted.

Row | Compound | Number of adult citrus red mite 7th day [1] | Number of adult citrus red mite 12th day [1] | Number of adult citrus red mite 18th day [1] | Number of adult citrus red mite 26th day [1] | pesticidal effects (in words) [1] | Number of adult citrus red mite Before application [1] | Number of adult two-spotted spite mite 5th day [2] | Number of adult two-spotted spite mite 9th day [2] | Number of adult two-spotted spite mite 12th day [2] | Number of adult two-spotted spite mite 15th day [2] | pesticidal effects (in words) [2] | Number of adult two-spotted spite mite Before application [2]
1 | CSC(=O)OC(=C(C#N)c1ccc(C(C)(C)C)cc1)c1ccccc1C(F)(F)F [Compound D, α-(4-tert-Butylphenyl)-β-[(methylthio)carbonyloxy]-β-(2-trifluoromethylphenyl)acrylonitrile] | 0 | 4 | 2 | 65 | excellent pesticidal effects | 111 | – | – | – | – | – | –
2 | CSC(=O)OC(=C(C#N)c1ccc(C(C)(C)C)cc1)c1ccccc1C(F)(F)F [Compound E, α-(4-tert-Butylphenyl)-β-[(methylthio)carbonyloxy]-β-(2-trifluoromethylphenyl)acrylonitrile] | 0 | 2 | 1 | 4 | excellent pesticidal effects; also recorded: superior pesticidal effects | 106 | – | – | – | – | – | –
3 | CSC(=S)OC(=C(C#N)c1ccc(Cl)cc1)c1ccccc1C(F)(F)F [H, α-(4-chlorophenyl)-β-(S-methyldithiocarbonyloxy)-β-(2-trifluoromethylphenyl)acrylonitrile] | – | – | – | – | – | – | 0 | 1 | 18 | 42 | excellent pesticidal effects | 111
4 | CSC(=S)OC(=C(C#N)c1ccc(Cl)cc1)c1ccccc1C(F)(F)F [Compound G, α-(4-Chlorophenyl)-β-(S-methyldithiocarbonyloxy)-β-(2-trifluoromethylphenyl)acrylonitrile] | – | – | – | – | – | – | 1 | 0 | 2 | 4 | excellent pesticidal effects; also recorded: superior pesticidal effects | 106
